“Also recorded” adds a separate entry of the source. Structures can show the parent of a compound that is named as a salt. Where two headings read alike, the source gives them in different places.
Tests used:
[1] = biological target: T1, soybean lipoxygenase-1 (sLO-1) (Glycine max, UniProt P08170); type: biochemical; conditions: for effect of LO product on the AA:LA ratio: up to 5 μM product
T1 sequence (P08170 1-839): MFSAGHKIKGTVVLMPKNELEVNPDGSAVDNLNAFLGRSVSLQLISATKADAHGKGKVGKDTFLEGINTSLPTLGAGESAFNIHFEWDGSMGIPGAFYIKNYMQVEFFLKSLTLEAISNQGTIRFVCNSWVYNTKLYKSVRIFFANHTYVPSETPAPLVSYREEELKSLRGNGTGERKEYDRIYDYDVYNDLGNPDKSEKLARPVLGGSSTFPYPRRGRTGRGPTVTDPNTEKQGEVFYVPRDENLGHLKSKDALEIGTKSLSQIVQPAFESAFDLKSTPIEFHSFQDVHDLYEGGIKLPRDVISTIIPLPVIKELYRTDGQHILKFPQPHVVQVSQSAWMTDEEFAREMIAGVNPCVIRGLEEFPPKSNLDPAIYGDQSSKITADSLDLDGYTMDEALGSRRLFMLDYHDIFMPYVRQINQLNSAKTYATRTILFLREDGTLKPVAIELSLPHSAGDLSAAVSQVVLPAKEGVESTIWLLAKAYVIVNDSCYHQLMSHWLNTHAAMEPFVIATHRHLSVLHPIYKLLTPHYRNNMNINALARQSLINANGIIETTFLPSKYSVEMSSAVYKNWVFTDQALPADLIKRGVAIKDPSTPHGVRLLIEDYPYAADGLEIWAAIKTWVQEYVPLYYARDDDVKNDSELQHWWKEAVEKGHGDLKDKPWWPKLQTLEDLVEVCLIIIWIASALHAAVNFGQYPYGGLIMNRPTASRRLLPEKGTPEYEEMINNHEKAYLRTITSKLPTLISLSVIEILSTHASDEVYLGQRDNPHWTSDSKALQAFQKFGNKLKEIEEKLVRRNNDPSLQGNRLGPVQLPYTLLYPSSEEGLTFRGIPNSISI

[2] = biological target: T1, soybean lipoxygenase-1 (sLO-1); type: biochemical; conditions: for effect of LO product on the endogenous substrate mixture ratio ALA:LA: up to 5 μM product addition; for effect of inhibitor on the (kcat/KM)^ALA/(kcat/KM)^LA ratio: inhibitor in excess of its IC50 value
[3] = system: 15-hLO-1 (human reticulocyte 15-lipoxygenase); conditions: cited from earlier work
[4] = biological target: T1, soybean lipoxygenase-1 (sLO-1); assay: IC50 assay of sLO-1 with PS, OS and OA inhibitors, LA as substrate; type: biochemical

In the case of CC/C=C\C[C@H](O)/C=C/C=C\CCCCCCCC(=O)O [13-HOTrE], the “effect of LO product on the AA:LA ratio” value [1] is reported as “no observable effect” and the “effect of LO product on the endogenous substrate mixture ratio ALA:LA” value [2] is reported as “no effect”.
In the case of CCCCC[C@H](O)/C=C/C=C\CCCCCCCC(=O)O [13-HODE, 13-(S)-hydroxyoctadecadienoic acid], the “effect of LO product on the AA:LA ratio” value [1] is listed as “no observable effect; also recorded: did not display any observable effect”, the “effect of LO product on the endogenous substrate mixture ratio ALA:LA” value [2] is listed as “no effect” and the “(kcat/KM)^AA/(kcat/KM)^LA ratio of 15-hLO-1” value ([3]; 5 μM 13-HODE, increase from 1.4) is listed as 2.9.
With CCCCCCCC/C=C\CCCCCCCC(=O)O [OA, oleic acid] the IC50 [4] was 11000 ± 3000 nM, the “effect of inhibitor on the AA:LA substrate ratio” value ([1]; competitive inhibitor, at IC50 and 5-fold IC50) was “no effect” and the “effect of inhibitor on the (kcat/KM)^ALA/(kcat/KM)^LA ratio” value [2] was “none of the inhibitors, OS, OA, or PS, affected”.
With CCCCC/C=C\C[C@H](O)/C=C/C=C\C/C=C\CCCC(=O)O [12-HETE, 12-(S)-hydroxyeicosatetraenoic acid] the “(kcat/KM)^AA/(kcat/KM)^LA ratio” value ([1]; addition of 12-HETE (5 μM), control 1.8 ± 0.2) was 2.4 ± 0.2, the “maximum (kcat/KM)^AA/(kcat/KM)^LA ratio at saturating conditions” value ([1]; calculated from saturation curve fit) was 5.1 ± 0.3 and the “binding affinity to sLO-1 weaker than to 15-hLO-1” value ([1]; ratio of half saturation points, sLO-1 vs 15-hLO-1) was ~30 fold. For the same compound, the “effect on sLO-1 catalysis” value ([1]; saturating amounts at the allosteric site, both AA and LA as substrate) was “inhibit sLO-1”, the “effect of LO product on the endogenous substrate mixture ratio ALA:LA” value [2] was “no effect” and the “(kcat/KM)^AA/(kcat/KM)^LA ratio of 15-hLO-1” value ([3]; with 12-HETE, increase from 1.8) was 2.7.
With CC/C=C\C/C=C\C/C=C\CCCCCCCC(=O)O [ALA, α-linolenic acid] the “(kcat/KM)^ALA/(kcat/KM)^LA ratio (substrate specificity, no effector)” value ([2]; ALA:LA 1:1, 1 μM total substrate, 100 mM Borate pH 9.2, 22 °C) was 0.75 ± 0.5.
In the case of CCCCCCCC/C=C\CCCCCCCCOS(=O)(=O)O [OS, oleyl sulfate], the IC50 [4] is reported as 1000 ± 100 nM, the AC50 [1] is reported as 1500 ± 300 nM and the “effect of inhibitor on the (kcat/KM)^ALA/(kcat/KM)^LA ratio” value [2] is reported as “none of the inhibitors, OS, OA, or PS, affected”.
In the case of CCCCC/C=C\C/C=C\C/C=C\C/C=C\CCCC(=O)O [AA, arachidonic acid], the “(kcat/KM)^AA/(kcat/KM)^LA ratio (substrate specificity, no effector)” value ([1]; AA:LA 1:1, 1 μM total substrate, 100 mM Borate pH 9.2, 22 °C) is reported as 1.8 ± 0.2.
